pIC50: −log10 of the molar value.
How the values were obtained:
Format in all cases: biochemical
[1] = molecular target: TYK2 (Homo sapiens, UniProt P29597); assay: JAK kinase activity, homogeneous time-resolved fluorescence (TYK2 reaction system); conditions: ATP 2 μM, TYK2 protein 0.2 ng/μL; read-out: TYK 2 activity
Method in brief: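 Activity read as the 665 nm/615 nm ratio after adding EDTA-containing detection mix with anti-phospho-substrate antibody and XL-615. Beforehand, 0.2 ng/μL TYK2, 2 μM ATP, substrate and compound reacted 1 h in pH 7.0 Hepes buffer with MgCl2 and DTT. IC50 fitted with Hill-slope equation.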

[2] = molecular target: JAK1 (Homo sapiens, UniProt P23458); assay: JAK kinase activity, homogeneous time-resolved fluorescence (JAK1 reaction system); conditions: ATP 2 μM, JAK1 protein 0.2 ng/μL; read-out: JAK 1 activity
Method in brief: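 Kinase activity read as the 665 nm/615 nm time-resolved fluorescence ratio (320 nm excitation) after EDTA-containing antibody and XL-615 addition. Reaction ran 1 h at pH 7.0 (Hepes, MgCl2, DTT) with 0.2 ng/μL JAK1 and ATP at 2 μM. IC50 derived by Hill-slope fit.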

[3] = molecular target: JAK2 (Homo sapiens, UniProt O60674); assay: JAK kinase activity, homogeneous time-resolved fluorescence (JAK2 reaction system); conditions: ATP 2 μM, JAK2 protein 0.01 ng/μL
Method in brief: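 IC50 derived by Hill-equation fit of the 665/615 nm time-resolved fluorescence ratio after EDTA-containing detection mix with anti-phosphosubstrate antibody. Preceding 1 h reaction contained 2 μM ATP, 0.01 ng/μL JAK2, substrate, 50 mM Hepes pH 7.0, 5 mM MgCl2, 1 mM DTT.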

[4] = molecular target: T1, JAK3 (Homo sapiens, UniProt P52333); assay: JAK kinase activity, homogeneous time-resolved fluorescence (JAK3 reaction system); conditions: ATP 2 μM, JAK3 protein 0.04 ng/μL; read-out: JAK 3 activity
T1 sequence (P52333 1-1124): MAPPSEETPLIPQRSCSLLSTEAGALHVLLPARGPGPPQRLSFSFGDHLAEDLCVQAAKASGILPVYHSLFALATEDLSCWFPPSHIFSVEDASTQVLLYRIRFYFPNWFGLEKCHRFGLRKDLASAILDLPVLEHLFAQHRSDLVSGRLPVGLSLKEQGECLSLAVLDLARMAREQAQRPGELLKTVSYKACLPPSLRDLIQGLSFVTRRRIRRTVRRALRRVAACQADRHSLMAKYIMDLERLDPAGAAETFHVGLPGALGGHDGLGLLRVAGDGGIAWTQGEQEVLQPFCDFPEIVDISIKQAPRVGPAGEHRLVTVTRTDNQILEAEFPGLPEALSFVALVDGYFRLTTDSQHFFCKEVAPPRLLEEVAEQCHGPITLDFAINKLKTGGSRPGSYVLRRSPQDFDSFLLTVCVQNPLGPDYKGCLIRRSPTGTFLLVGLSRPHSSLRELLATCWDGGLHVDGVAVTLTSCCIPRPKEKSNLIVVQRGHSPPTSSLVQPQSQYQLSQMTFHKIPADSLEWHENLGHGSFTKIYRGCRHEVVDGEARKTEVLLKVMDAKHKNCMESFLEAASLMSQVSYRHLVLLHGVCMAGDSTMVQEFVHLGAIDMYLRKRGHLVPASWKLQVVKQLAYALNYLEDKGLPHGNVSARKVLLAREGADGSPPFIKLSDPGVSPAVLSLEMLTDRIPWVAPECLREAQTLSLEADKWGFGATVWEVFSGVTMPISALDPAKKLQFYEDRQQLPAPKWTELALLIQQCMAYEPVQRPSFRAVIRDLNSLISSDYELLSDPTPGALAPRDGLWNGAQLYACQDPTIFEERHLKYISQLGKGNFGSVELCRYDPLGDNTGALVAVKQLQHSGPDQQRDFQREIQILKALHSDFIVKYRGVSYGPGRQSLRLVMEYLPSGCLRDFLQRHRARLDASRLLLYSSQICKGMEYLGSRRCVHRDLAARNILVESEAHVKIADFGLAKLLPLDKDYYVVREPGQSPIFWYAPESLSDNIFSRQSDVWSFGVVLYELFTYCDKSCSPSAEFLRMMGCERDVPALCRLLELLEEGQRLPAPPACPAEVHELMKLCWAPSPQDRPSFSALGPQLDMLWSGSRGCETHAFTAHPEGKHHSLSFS

Chain of TYK2 (P29597 whole entry): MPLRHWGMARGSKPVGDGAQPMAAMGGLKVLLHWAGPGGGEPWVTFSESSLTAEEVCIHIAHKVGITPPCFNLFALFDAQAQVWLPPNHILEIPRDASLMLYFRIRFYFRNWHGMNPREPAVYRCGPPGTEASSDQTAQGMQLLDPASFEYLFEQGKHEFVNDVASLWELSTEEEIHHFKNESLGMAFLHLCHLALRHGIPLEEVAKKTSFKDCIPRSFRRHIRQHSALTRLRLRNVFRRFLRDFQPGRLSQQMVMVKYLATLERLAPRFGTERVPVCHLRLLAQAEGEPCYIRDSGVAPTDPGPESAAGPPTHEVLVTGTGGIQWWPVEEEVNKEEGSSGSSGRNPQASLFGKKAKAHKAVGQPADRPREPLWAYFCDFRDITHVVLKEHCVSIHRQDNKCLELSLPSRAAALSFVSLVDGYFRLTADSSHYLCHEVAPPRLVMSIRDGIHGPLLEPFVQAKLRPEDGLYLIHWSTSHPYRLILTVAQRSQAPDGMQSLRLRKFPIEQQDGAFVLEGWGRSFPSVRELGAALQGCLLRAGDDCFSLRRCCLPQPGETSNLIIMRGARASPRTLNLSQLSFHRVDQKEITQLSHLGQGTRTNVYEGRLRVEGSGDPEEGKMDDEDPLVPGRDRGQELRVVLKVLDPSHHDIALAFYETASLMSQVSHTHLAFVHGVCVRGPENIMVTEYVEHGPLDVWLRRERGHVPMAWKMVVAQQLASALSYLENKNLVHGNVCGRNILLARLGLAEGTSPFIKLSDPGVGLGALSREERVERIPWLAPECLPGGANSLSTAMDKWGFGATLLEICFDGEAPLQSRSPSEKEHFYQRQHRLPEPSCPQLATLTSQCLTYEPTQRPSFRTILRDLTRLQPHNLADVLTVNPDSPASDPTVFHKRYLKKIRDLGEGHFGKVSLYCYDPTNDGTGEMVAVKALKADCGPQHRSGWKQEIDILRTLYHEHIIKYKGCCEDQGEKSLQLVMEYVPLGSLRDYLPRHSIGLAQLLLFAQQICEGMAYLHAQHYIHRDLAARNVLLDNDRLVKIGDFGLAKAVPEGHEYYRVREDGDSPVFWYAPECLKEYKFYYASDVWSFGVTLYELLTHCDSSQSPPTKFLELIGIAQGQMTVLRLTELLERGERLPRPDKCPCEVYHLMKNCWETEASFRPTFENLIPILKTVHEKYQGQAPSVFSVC
Chain of JAK2 (O60674 whole entry): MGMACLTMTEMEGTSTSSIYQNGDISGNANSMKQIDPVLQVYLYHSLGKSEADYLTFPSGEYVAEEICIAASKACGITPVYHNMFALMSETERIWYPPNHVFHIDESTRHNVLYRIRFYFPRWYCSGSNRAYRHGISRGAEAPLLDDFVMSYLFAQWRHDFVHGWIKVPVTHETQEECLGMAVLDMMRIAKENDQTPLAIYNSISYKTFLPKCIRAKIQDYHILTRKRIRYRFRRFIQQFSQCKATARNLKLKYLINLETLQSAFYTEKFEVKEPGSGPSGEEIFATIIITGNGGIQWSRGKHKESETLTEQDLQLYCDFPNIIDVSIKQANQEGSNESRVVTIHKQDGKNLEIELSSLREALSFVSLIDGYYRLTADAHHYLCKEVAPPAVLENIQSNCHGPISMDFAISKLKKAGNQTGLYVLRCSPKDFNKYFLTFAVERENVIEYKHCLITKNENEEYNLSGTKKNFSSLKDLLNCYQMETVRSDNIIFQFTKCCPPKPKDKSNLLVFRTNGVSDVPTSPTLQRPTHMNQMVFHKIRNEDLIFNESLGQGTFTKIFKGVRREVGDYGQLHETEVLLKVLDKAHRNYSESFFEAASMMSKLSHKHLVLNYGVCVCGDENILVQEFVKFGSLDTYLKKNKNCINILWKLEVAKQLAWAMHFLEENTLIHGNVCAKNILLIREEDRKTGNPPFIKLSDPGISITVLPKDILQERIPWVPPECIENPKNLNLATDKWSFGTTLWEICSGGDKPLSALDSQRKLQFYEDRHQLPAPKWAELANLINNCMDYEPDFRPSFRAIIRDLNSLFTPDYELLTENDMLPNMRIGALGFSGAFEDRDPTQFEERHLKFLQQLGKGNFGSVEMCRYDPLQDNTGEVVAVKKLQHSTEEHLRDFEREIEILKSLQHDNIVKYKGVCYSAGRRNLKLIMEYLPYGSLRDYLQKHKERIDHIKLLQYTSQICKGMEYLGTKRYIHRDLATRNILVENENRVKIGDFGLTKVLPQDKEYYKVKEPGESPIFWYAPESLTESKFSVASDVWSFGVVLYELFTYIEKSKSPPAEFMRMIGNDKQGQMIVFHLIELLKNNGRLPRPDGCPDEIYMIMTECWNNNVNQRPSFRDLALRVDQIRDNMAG
Chain of JAK1 (P23458 whole entry): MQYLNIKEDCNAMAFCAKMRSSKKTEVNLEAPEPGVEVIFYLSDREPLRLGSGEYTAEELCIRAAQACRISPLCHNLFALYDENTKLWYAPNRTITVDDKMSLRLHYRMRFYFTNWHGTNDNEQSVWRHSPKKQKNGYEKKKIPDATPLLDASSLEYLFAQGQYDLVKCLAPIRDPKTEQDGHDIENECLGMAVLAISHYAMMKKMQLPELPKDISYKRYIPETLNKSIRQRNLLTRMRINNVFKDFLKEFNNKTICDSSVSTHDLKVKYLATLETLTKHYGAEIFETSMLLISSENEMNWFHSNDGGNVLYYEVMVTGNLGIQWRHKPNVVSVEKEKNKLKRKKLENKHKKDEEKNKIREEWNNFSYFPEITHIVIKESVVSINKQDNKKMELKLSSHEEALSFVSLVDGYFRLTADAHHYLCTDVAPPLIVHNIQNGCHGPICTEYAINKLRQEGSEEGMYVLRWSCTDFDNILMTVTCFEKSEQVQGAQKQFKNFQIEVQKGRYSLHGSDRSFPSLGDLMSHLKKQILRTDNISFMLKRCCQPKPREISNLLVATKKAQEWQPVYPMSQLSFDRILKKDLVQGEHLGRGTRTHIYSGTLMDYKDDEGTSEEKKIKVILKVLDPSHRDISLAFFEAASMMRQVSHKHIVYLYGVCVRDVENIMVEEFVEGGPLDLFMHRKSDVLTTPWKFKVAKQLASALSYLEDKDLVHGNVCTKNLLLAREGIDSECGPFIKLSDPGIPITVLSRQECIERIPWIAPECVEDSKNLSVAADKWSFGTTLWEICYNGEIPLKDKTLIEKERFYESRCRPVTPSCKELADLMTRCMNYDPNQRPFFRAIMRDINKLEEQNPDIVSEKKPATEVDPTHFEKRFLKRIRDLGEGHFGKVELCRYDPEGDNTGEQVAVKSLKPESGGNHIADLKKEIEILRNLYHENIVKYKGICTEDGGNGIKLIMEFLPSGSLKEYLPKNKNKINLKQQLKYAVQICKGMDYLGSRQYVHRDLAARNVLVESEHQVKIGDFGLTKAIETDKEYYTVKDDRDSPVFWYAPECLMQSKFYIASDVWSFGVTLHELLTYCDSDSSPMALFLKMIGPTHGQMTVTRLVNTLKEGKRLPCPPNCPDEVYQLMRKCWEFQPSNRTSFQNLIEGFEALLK

For `O=C1NCCCCOCc2cc(ccc2F)Nc2nccc(n2)-c2ccc1cc2[N+](=O)[O-]` [Example 68, 4^4-fluoro-1^2-nitro-6-oxa-3,11-diaza-2(4,2)-pyrimidina-1(1,4),4(1,3)-di-benzenacyclododecaphan-12-one], the pIC50 [1] was < 5.00, the pIC50 [2] was 5.00 to 6.00 and the pIC50 [3] was 5.00 to 6.00. For the same compound, the pIC50 [4] was 6.00 to 7.00.

`CN1CCN(c2ccc3cc2COCCCCNC(=O)c2ccc(c(N)c2)-c2ccnc(n2)N3)CC1` [Example 70, 1^2-amino-4^4-(4-methylpiperazin-1-yl)-6-oxa-3,11-diaza-2(4,2)-pyrimidi-na-1(1,4),4(1,3)-dibenzenacyclo-dodecaphan-12-one] showed a pIC50 [1] of 5.00 to 6.00, a pIC50 [2] of 5.00 to 6.00 and a pIC50 [3] of 6.00 to 7.00. For the same compound, the pIC50 [4] was 7.00 to 7.96.

Work on `CC1(C)CCOCc2cc(ccc2OC2CCCOC2)Nc2nccc(n2)-c2ccc(cc2N)C(=O)NC1` (centres unmarked) [Example 170, 1^2-amino-9,9-dimethyl-4^4-((tetra-hydroxy-2H-pyran-3-yl)oxy)-6-oxa-3,11-diaza-2(4,2)-pyrimidina-1(1,4),4(1,3)-dibenzenacyclododecaphan-12-one] yielded a pIC50 [1] of 5.00 to 6.00, a pIC50 [2] of 5.00 to 6.00 and a pIC50 [3] of 5.00 to 6.00. The pIC50 [4] was 6.00 to 7.00.

`CC1CCNC(=O)c2ccc(c(N)c2)-c2ccnc(n2)Nc2ccc(OCC3COC3)c(c2)COC1` (centres unmarked) [Example 175] showed a pIC50 [1] of 5.00 to 6.00, a pIC50 [2] of 5.00 to 6.00 and a pIC50 [3] of 6.00 to 7.00. The pIC50 [4] was 7.00 to 7.96.

In the case of “4^4-((1,3-dihydroisobenzofuran-4- yl)methoxy)-1^2-nitro-6-oxa-3,11-di- aza-2(4,2)-pyrimidina-1(1,4),4(1,3)- dibenzenacyclododecaphan-12- one [Example 159]”, the pIC50 [1] was < 5.00, the pIC50 [2] was < 5.00 and the pIC50 [3] was < 5.00. It also gave a pIC50 [4] of 5.00 to 6.00.

`Nc1cc2ccc1-c1ccnc(n1)Nc1ccc(OC3CCOCC3)c(c1)COCCCCNC2=O` [Example 63, 1^2-amino-4^4-(4-tetrahydropyranoxy)-6-oxa-3,11-diaza-2(4,2)-pyrimidina-1(1,4),4(1,3)-dibenzenacyclo-dodecaphan-12-one] showed a pIC50 [1] of 5.00 to 6.00, a pIC50 [2] of 6.00 to 7.00 and a pIC50 [3] of 7.00 to 7.96. For the same compound, the pIC50 [4] was > 8.00.

`COc1cc(F)ccc1COc1ccc2cc1COCCCCNC(=O)c1ccc(c(N)c1)-c1ccnc(n1)N2` [Example 173, 1^2-amino-4^4-((4-fluoro-2-methoxy-benzyl)oxy)-6-oxa-3,11-diaza-2(4,2)-pyrimidina-1(1,4),4(1,3)-di-benzenacyclododecaphan-12-one] was tested, and the pIC50 [1] was 5.00 to 6.00, the pIC50 [2] was 5.00 to 6.00 and the pIC50 [3] was 6.00 to 7.00. The pIC50 [4] was 7.00 to 7.96.

For `O=C1NCCCCOCc2cc(ccc2N2CCCCC2)Nc2nccc(n2)-c2ccc1cc2F` [Example 29, 1^2-fluoro-4^4-(piperidin-1-)-6-oxa-3,11-diaza-2(4,2)-pyrimidina-1(1,4),4(1,3)-dibenzenacyclododecaphan-12-one], the pIC50 [1] was 5.00 to 6.00, the pIC50 [2] was 6.00 to 7.00 and the pIC50 [3] was 7.00 to 7.96. For the same compound, the pIC50 [4] was 7.00 to 7.96.

`C[C@H]1CCOCc2cc(ccc2OC2CCCC2)Nc2nccc(n2)-c2ccc(cc2N)C(=O)NC1` [Example 190] was tested, and the pIC50 [1] was 5.00 to 6.00, the pIC50 [2] was 5.00 to 6.00 and the pIC50 [3] was 6.00 to 7.00. For the same compound, the pIC50 [4] was 7.00 to 7.96.

In the case of `CN(C)c1cc2ccc1-c1ccnc(n1)Nc1ccc(OC3CC3)c(c1)COCCCCNC2=O` [Example 83, 4^4-cyclopropxy-1^2-dimethylamino-6-oxa-3,11-diaza-2(4,2)-pyrimidina-1(1,4),4(1,3)-dibenzenacyclododeca-phan-12-one], the pIC50 [1] was < 5.00, the pIC50 [2] was 5.00 to 6.00 and the pIC50 [3] was 5.00 to 6.00. The pIC50 [4] was < 5.00.

With `Cc1ccc2cc1COCCCCNC(=O)c1ccc(c(C)c1)-c1nc(ncc1C)N2` [Example 37, 1^2,2^5,4^4-trimethyl-6-oxa-3,11-diaza-2(4,2)-pyrimidina-1(1,4),4(1,3)-di-benzenacyclododecaphan-12-one] the pIC50 [1] was < 5.00, the pIC50 [2] was < 5.00 and the pIC50 [3] was < 5.00. For the same compound, the pIC50 [4] was 5.00 to 6.00.

`O=C1NCCCCOCc2cc(cc(N3CCOCC3)c2)Nc2nccc(n2)-c2ccc1cc2` [Example 3, 4^5-morpholin-6-oxa-3,11-diaza-2(4,2)-pyrimidina-1(1,4),4(1,3)-dibenze-nacyclododecaphan-12-one] was tested, and the pIC50 [1] was < 5.00, the pIC50 [2] was 6.00 to 7.00 and the pIC50 [3] was 6.00 to 7.00. The pIC50 [4] was 6.00 to 7.00.

In the case of `Nc1cc2ccc1-c1ccnc(n1)Nc1ccc(Oc3cccc(F)c3)c(c1)COCCCCNC2=O` [Example 102, 1^2-amino-4^4-(3-fluorophenoxy)-6-oxa-3,11-diaza-2(4,2)-pyrimidina-1(1,4),4(1,3)-dibenzenacyclodode-caphan-12-one], the pIC50 [1] was < 5.00, the pIC50 [2] was 5.00 to 6.00 and the pIC50 [3] was 5.00 to 6.00. It also gave a pIC50 [4] of 7.00 to 7.96.

For `CC1CCNC(=O)c2ccc(c([N+](=O)[O-])c2)-c2ccnc(n2)Nc2ccc(OCC3CCC3)c(c2)COC1` (centres unmarked) [Example 141, 4^4-(cyclobutylmethoxy)-8-methyl-1^2-nitro-6-oxa-3,11-diaza-2(4,2)-pyrimidina-1(1,4),4(1,3)-dibenzena-cyclododecaphan-12-one], the pIC50 [1] was < 5.00, the pIC50 [2] was < 5.00 and the pIC50 [3] was < 5.00. For the same compound, the pIC50 [4] was 5.00 to 6.00.

In the case of `Nc1cc2ccc1-c1ccnc(n1)Nc1ccc(Oc3cnc4[nH]ccc4c3)c(c1)COCCCCNC2=O` [Example 161, 4^4-((1H-pyrrolo[2,3-b]pyridin-5-yl)oxy)-1^2-amino-6-oxa-3,11-diaza-2(4,2)-pyrimidina-1(1,4),4(1,3)-di-benzenacyclododecaphan-12-one], the pIC50 [1] was < 5.00, the pIC50 [2] was 5.00 to 6.00 and the pIC50 [3] was 5.00 to 6.00. It also gave a pIC50 [4] of 5.00 to 6.00.

`CC1CCNC(=O)c2ccc(c(N)c2)-c2ccnc(n2)Nc2ccc(OCC3CCOC3)c(c2)COC1` (centres unmarked) [Example 136, 1^2-amino-8-methyl-4^4-((tetrahydro-furan-3-yl)methoxy)-6-oxa-3,11-diaza-2(4,2)-pyrimidina-1(1,4),4(1,3)-dibenzenacyclododecaphan-12-one] gave a pIC50 [1] of 5.00 to 6.00, a pIC50 [2] of 5.00 to 6.00 and a pIC50 [3] of 6.00 to 7.00. For the same compound, the pIC50 [4] was > 8.00.

`O=C1NCCCCOCc2cc(ccc2OCC2CCc3ccccc32)Nc2nccc(n2)-c2ccc1cc2[N+](=O)[O-]` (centres unmarked) [Example 133, 4^4-((2,3-dihydro-1H-inden-1-yl)methoxy)-1^2-nitro-6-oxa-3,11-diaza-2(4,2)-pyrimidina-1(1,4),4(1,3)-dibenzenacyclododecaphan-12-one] was tested, and the pIC50 [1] was < 5.00, the pIC50 [2] was < 5.00 and the pIC50 [3] was < 5.00. The pIC50 [4] was 5.00 to 6.00.

`CC1CCOCc2cc(ccc2OCC2CCCC2)Nc2nccc(n2)-c2ccc(cc2N)C(=O)NC1` (centres unmarked) [Example 169, 1^2-amino-4^4-(cyclopentylmethoxy)-9-methyl-6-oxa-3,11-diaza-2(4,2)-pyrimidina-1(1,4),4(1,3)-dibenzena-cyclododecaphan-12-one] gave a pIC50 [1] of 5.00 to 6.00, a pIC50 [2] of 5.00 to 6.00 and a pIC50 [3] of 6.00 to 7.00. The pIC50 [4] was 7.00 to 7.96.

`COc1cccc(F)c1COc1ccc2cc1COCC[C@H](C)CNC(=O)c1ccc(c(N)c1)-c1ccnc(n1)N2` [Example 192, (S)-1^2-amino-4^4-((2-fluoro-6-meth-oxybenzyl)oxy)-9-methyl-6-oxa-3,11-diaza-2(4,2)-pyrimidina-1(1,4),4(1,3)-dibenzenacyclo-dodecaphan-12-one] was tested, and the pIC50 [1] was < 5.00, the pIC50 [2] was 5.00 to 6.00 and the pIC50 [3] was 5.00 to 6.00. It also gave a pIC50 [4] of 6.00 to 7.00.

`Cc1cc2ccc1NC(=O)c1ccc(c(N)c1)-c1ccnc(n1)Nc1ccc(OC3CC3)c(c1)CO2` [Example 207, 1^2-amino-4^4-cyclopropoxy-7^3-meth-yl-6-oxa-3,8-diaza-2(4,2)-pyrimidina-1,7(1,4),4(1,3)-tribenzenacyclo-nonaphane-9-one] gave a pIC50 [1] of 5.00 to 6.00, a pIC50 [2] of 6.00 to 7.00 and a pIC50 [3] of 6.00 to 7.00. It also gave a pIC50 [4] of 7.00 to 7.96.

Reference: patent publication US20230203059A1, “MACROCYCLIC JAK INHIBITOR AND USES THEREOF” (Biopolar Hongye (Guangdong) Pharmaceutical Co. Ltd., priority 2020, published 2023)
